Where “and” joins values, the source holds several entries; their conditions need not be identical. Equal values may be shown once. No end group written: not given here.
Experiments:
RD cells = test: Cytotoxicity by CCK-8 in RD cells; type: cell-based; conditions: RD cells; for Cell viability (%): 24 h, untreated = 100%; for cytotoxicity, result in words: CCK-8, 24 h
Experimental: (§1) The experiment was performed as follows. • (1) RD cells were plated in a 96-well plate at 100 μl per well. • (2) After the cells reached 70%-80% confluence, the MEM medium containing 10% serum was replaced with a MEM medium containing 2% serum. Then, polypeptide P2 was added to generate gradient concentrations of 0.01 μM, 0.1 μM, 1 μM, 10 μM, and 100 μM (final concentration), respectively. • (3) The test was performed 24 hours after the addition of the polypeptide, and 10 μl of viable cell detection reagent CCK-8 was added to each well and mixed well. • (4) The plate was incubated at 37° C. for 2 h. • (5) The absorbance value at OD450 was measured with a microplate reader.
as §1, with “P1” for “P2”, “concentrations),” for “concentration),”
(§2) RD cells were used to test the antiviral effect of polypeptide P1. When RD cells reached 80% confluence, polypeptide P1 was added at concentrations of 0 μM (control group), 0.01 μM, 0.1 μM, 1 μM, 10 μM, and 100 μM, respectively. Three parallel wells were used for each concentration. The test was carried out 24 hours later, and the cell viability was detected using the CCK-8 kit.
as §1, with “3A-TAT-EP” for “P2”, “concentrations),” for “concentration),”
as §2, with “3A-TAT-EP.” for “P1.”, “3A-TAT-EP” for “P1”
as §1, with “Then, 3A-EP-DRI or 3A-EP-PEG4-PA” for “Then, polypeptide P2”, “and 50” for “and 100”, “(final concentrations),” for “(final concentration),”
as §2, with “polypeptides 3A-EP-DRI and 3A-EP-PEG4-PA.” for “polypeptide P1.”, “3A-EP-DRI or 3A-EP-PEG4-PA” for “P1”, “50” for “100”, “kit. […]” for “kit.”

[1] = Cytotoxicity by CCK-8 in RD cells; type: cell-based; conditions: human; for viability at 24 h, 0.01 µM: 0.01 μM polypeptide; for viability at 24 h, 0.01 µM / viability at 24 h, 0.1 µM / viability at 24 h, 1 µM / viability at 24 h, 10 µM / viability at 24 h, 100 µM: untreated = 100%, read-out: Cell viability (%); for viability at 24 h, 0.1 µM: 0.1 μM polypeptide; for viability at 24 h, 1 µM: 1 μM polypeptide; for viability at 24 h, 10 µM: 10 μM polypeptide; for viability at 24 h, 100 µM: 100 μM polypeptide; for CC50 at 24 h: Table 1 summary, cell line not given, read-out: CC50
Experimental: as §1
as §1, with “P1” for “P2”, “concentrations),” for “concentration),”
as §2
as §1, with “3A-TAT-EP” for “P2”, “concentrations),” for “concentration),”
as §2, with “3A-TAT-EP.” for “P1.”, “3A-TAT-EP” for “P1”
as §1, with “Then, 3A-EP-DRI or 3A-EP-PEG4-PA” for “Then, polypeptide P2”, “and 50” for “and 100”, “(final concentrations),” for “(final concentration),”
as §2, with “polypeptides 3A-EP-DRI and 3A-EP-PEG4-PA.” for “polypeptide P1.”, “3A-EP-DRI or 3A-EP-PEG4-PA” for “P1”, “50” for “100”, “kit. […]” for “kit.”

EV71 = test: Anti-EV71 efficiency in RD cells, viral RNA by qRT-PCR; type: cell-based, enterovirus 71; conditions: 24 h, control infected without polypeptide
Experimental: • (1) RD cells were plated in five 100 mm dishes. • (2) After the cells reached 70%-80% confluence, the MEM medium containing 10% serum was replaced with a MEM medium containing 2% serum. […] When the changes were obvious, samples were collected as follows. • (4) The supernatant in the 100 mm dish was transferred into a 15 ml centrifuge tube, and centrifuged at 500 g for 5 min. • (5) The supernatant was transferred into a new 15 ml centrifuge tube, and filtered through 0.22 μm filter membrane with a 50 ml syringe. • (6) RNA was extracted from 100 μl of the supernatant obtained in step (5) and subjected to one step qRT-PCR to measure the virus titer, and the previously extracted virus RNA with known titer was handled together as a control. 3. Measure Antiviral Efficiency of Polypeptide in RD Cells. • (1) Different cells were plated in 24-well cell plates. • (2) After the cells reached 70%-80% confluence, the MEM medium containing 10% serum was replaced with a MEM medium containing 2% serum (0.5 ml/well), and 5 μl of 10^6 PFU/mL EV71 viruses per well were added. • (3) After 1 h, different polypeptides were added at a final concentration of 0.01 μM, 0.1 μM, 1 μM, 10 μM, and 50 μM, respectively. • (4) Samples were collected 24 hours after virus infection, and RNA was extracted with total RNA extraction kit as follows. • (5) The supernatant in the wells was discarded, then 350 μl of TRK Lysis Buffer was added to each well and the plate was shaken on the shaker for 5 minutes. • (6) 350 μl of 70% ethanol (DEPC-treated) was added to the well and the plate was shaken on the shaker for 5 minutes. • (7) The mixture in the well was transferred to a RNA extraction column and centrifuged at 12,000 g for 1 min. • (8) The solution collected in the recovery tube was added back to the column and centrifuged at 12,000 g for 1 min. • (9) RNA washing buffer 1 was added to the column and centrifuged at 12,000 g for 30 s. • (10) RNA washing buffer 2 was added to the column and centrifuged at 12,000 g for 1 min. • (11) Step (10) was repeated once. • (12) The column was centrifuged at 12000 g for 2 min to completely remove residual RNA washing buffer. • (13) 50 μl DEPC-treated H2O was added to the column and centrifuge at 12,000 g for 2 min. • (14) 2 μl RNA sample was used according to one step qRT-PCR kit for fluorescence quantification experiment.
RD cells added with R8 penetrating peptide (sequence: RRRRRRRR) were used as a negative control.
RD cells were used to test the antiviral effect of polypeptide P2. EV71 (MOI=0.1) was added to RD cells at 80% confluence. After 1 hour of infection, polypeptide P2 was added at concentrations of 0.01 μM, 0.1 μM, 1 μM, 10 μM, and 50 μM, respectively. The samples were collected 24 hours later, and the total RNA was extracted. The level of viral genomic RNA was detected by qRT-PCR. The cells infected with the same type virus and added with penetrating peptide R8 were used as a control group.
• (1) RD cells were plated in five 100 mm dishes. • (2) After the cells reached 70%-80% confluence, the MEM medium containing 10% serum was replaced with a MEM medium containing 2% serum. […] When the changes were obvious, samples were collected as follows. • (4) The supernatant in the 100 mm dish was transferred into a 15 ml centrifuge tube, and centrifuged at 500 g for 5 min. • (5) The supernatant was transferred into a new 15 ml centrifuge tube, and filtered through 0.22 μm filter membrane with a 50 ml syringe. • (6) RNA was extracted from 100 μl of the supernatant obtained in step (5) and subjected to one step qRT-PCR to measure the virus titer, and the previously extracted virus RNA with known titer was handled together as a control. 3. […]

Row | Compound | Cell viability (%) (RD cells; 0.01 μM polypeptide) | Cell viability (%) (RD cells; 0.1 μM polypeptide) | Cell viability (%) (RD cells; 1 μM polypeptide) | Cell viability (%) (RD cells; 10 μM polypeptide) | Cell viability (%) (RD cells; 100 μM polypeptide) | cytotoxicity, result in words (RD cells) | viability at 24 h, 0.01 µM ([1]; RD cells) [%] | viability at 24 h, 0.1 µM ([1]; RD cells) [%] | viability at 24 h, 1 µM ([1]; RD cells) [%] | viability at 24 h, 10 µM ([1]; RD cells) [%] | viability at 24 h, 100 µM ([1]; RD cells) [%] | CC50 at 24 h [1] [µM] | Relative viral RNA amount (%) (EV71; EV71 MOI=0.1, 0.01 μM) | Relative viral RNA amount (%) (EV71; EV71 MOI=0.1, 0.1 μM) | Relative viral RNA amount (%) (EV71; EV71 MOI=0.1, 1 μM) | viability at 24 h ([1]; RD cells, Cell viability (%)) [%] | Relative viral RNA amount (%) (EV71; EV71 MOI=0.1, 10 μM)
1 | CC[C@H](C)[C@H](NC(=O)[C@H](Cc1c[nH]c2ccccc12)NC(=O)CNC(=O)[C@H](CCC(N)=O)NC(=O)[C@H](CCC(=O)O)NC(=O)[C@H](CCCNC(=N)N)NC(=O)[C@H](CS)NC(=O)[C@H](Cc1ccc(O)cc1)NC(=O)[C@H](CCC(N)=O)NC(=O)[C@H](CCCNC(=N)N)NC(=O)[C@@H](NC(=O)[C@H](CCC(=O)O)NC(=O)[C@H](CCC(=O)O)NC(=O)CNC(=O)[C@H](CO)NC(=O)CNC(=O)[C@H](CCCNC(=N)N)NC(=O)[C@H](CCCNC(=N)N)NC(=O)[C@H](CCCNC(=N)N)NC(=O)[C@H](CCC(N)=O)NC(=O)[C@H](CCCNC(=N)N)NC(=O)[C@H](CCCNC(=N)N)NC(=O)[C@H](CCCCN)NC(=O)[C@H](CCCCN)NC(=O)[C@H](CCCNC(=N)N)NC(=O)CNC(=O)[C@@H](N)Cc1ccc(O)cc1)C(C)C)C(=O)N[C@H](C(=O)N1CCC[C@H]1C(=O)O)[C@@H](C)CC [3A-TAT-EP] | 98.82% and 106.3% | 104.9% and 99.14% | 105.5% and 102.9% | 107.1% and 98.61% | 97.06% and 98.38% | not toxic to cells within 100 μM | 103 | 106 | 103 | 103 | 100 | > 100 | – | – | – | – | –
2 | CCCCCCCCCCCCCCCC(=O)NCCCC[C@H](NC(=O)CCNC(=O)[C@@H]1CCCN1C(=O)[C@@H](NC(=O)[C@@H](NC(=O)[C@H](Cc1c[nH]c2ccccc12)NC(=O)CNC(=O)[C@H](CCC(N)=O)NC(=O)[C@H](CCC(=O)O)NC(=O)[C@H](CCCNC(=N)N)NC(=O)[C@H](CS)NC(=O)[C@H](Cc1ccc(O)cc1)NC(=O)[C@H](CCC(N)=O)NC(=O)[C@H](CCCNC(=N)N)NC(=O)[C@@H](NC(=O)[C@H](CCC(=O)O)NC(=O)[C@@H](N)CCC(=O)O)C(C)C)[C@@H](C)CC)[C@@H](C)CC)C(=O)O [EP-PA] | – | – | – | – | – | – | – | – | – | – | – | – | 83.07% and 76.47% and 56.74% | 79.01% and 67.55% and 53.7% | 86.29% and 75.98% and 56.91% | – | –
3 | N=C(N)NCCC[C@H](NC(=O)[C@H](CCCNC(=N)N)NC(=O)[C@H](CCCNC(=N)N)NC(=O)[C@H](CCCNC(=N)N)NC(=O)[C@H](CCCNC(=N)N)NC(=O)[C@H](CCCNC(=N)N)NC(=O)[C@H](CCCNC(=N)N)NC(=O)[C@@H](N)CCCNC(=N)N)C(=O)O [R8, reference compound] | – | – | – | – | – | – | – | – | – | – | – | – | – | – | – | 104 | –
4 | EP-CHOL: SEQ ID NO: 9, EEVRQYCREQGWIIP-AK-cholesterol (Chol) | – | – | – | – | – | – | – | – | – | – | – | – | 75.49% and 59.54% and 59.75% | 75.76% and 70.99% and 60.98% | 96.78% and 76.07% and 59.55% | – | 39.12% and 66.18% and 37.09%
5 | RRRRRRRRAISDLLAS [P1] | 98.82% and 106.3% | 104.9% and 99.14% | 105.5% and 102.9% | 107.1% and 98.61% | 97.06% and 98.38% | not toxic to cells within 100 μM | 103 | 106 | 103 | 103 | 100 | > 100 | – | – | – | – | –

— patent US11999806B2, “Broad-spectrum polypeptide against enterovirus and application thereof” (WUHAN INSTITUTE OF VIROLOGY, CHINESE ACADEMY OF SCIENCES, priority 2018, dated 2024)
